By half-life is commonly meant how long it takes for the measured level to halve. Higher therefore signals slow decline. For orientation: thermodynamic solubility means the concentration in solution at equilibrium with solid. What is called Papp A→B is how fast a substance crosses the layer from the apical side. Low readings indicate slow passage, high ones fast passage. As usually defined, the Papp B→A is how fast a substance crosses the layer from the basolateral side. One may read the inhibition as the change of the read-out against control, counted positive when it falls.

The values below come from publication PMC6727465, “Discovery of 2-phenoxyacetamides as inhibitors of the Wnt-depalmitoleating enzyme NOTUM from an X-ray fragment screen” (MedChemComm, 2019).

Series [1] in a line: Metabolic stability in mouse liver microsomes. The class given is in vitro ADME. The settings on record: NADPH independent metabolism; for half-life: mouse. An excerpt:
(§1) Selected compounds were screened for aqueous solubility, transit performance in MDCK-mdr1 cell
(§2) lines for permeability, and metabolic stability in human and mouse liver microsomes as a measure of
(§3) ADME studies reported in this work were independently performed by GVK Biosciences (Hyderabad,
(§4) India) and/or Cyprotex (Macclesfield, UK).
(§5) Cyptotex, UK. See: https://www.cyprotex.com/admepk
(§6) GVK Biosciences, India. See: https://www.gvkbio.com/discovery-services/biology-services/dmpk-
(§7) The MDCK-mdr1 cell line used in these experiments was supplied to GVK Biosciences from SOLVO
(In general: Liver microsomes are vesicles of endoplasmic reticulum, rich in cytochrome P450 enzymes.)

In series [2] the test system is Wnt/β-catenin signaling pathway TCF/LEF reporter (luciferase) HEK293 cell line with exogenous Wnt3a and NOTUM. The series can be described thus: cells. It counts as cell-based. As to conditions: for EC50: Wnt3a 100 ng mL^–1, NOTUM 500 ng mL^–1, n = 4, read-out: TCF/LEF reporter EC50, activation of Wnt signaling via inhibition of NOTUM.
Series [3] is described as follows: Metabolic stability in human liver microsomes. The class given is in vitro ADME. The settings on record: NADPH independent metabolism.
Text: as §1, §2, §3, §4, §5, §6, §7

A short description of series [4]: Aqueous thermodynamic solubility. The settings on record: aqueous medium (not further specified), thermodynamic from solid. The class given is physicochemical.
Text: as §1, §2, §3, §4, §5, §6, §7

Series [5] can be described thus: MDCK-mdr1 cell permeability. The settings on record: dog. The class given is in vitro ADME.
Text: as §1, §2, §3, §4, §5, §6, §7

In another series the test system is MDCK-mdr1 cell line. The series can be described thus: MDCK-mdr1 cell permeability. As to conditions: MDCK-mdr1. It counts as in vitro ADME.
Text: as §1, §2, §3, §4, §5, §6, §7

Series [6] is described as follows: Hydrolytic stability in buffer systems. It counts as physicochemical. As to conditions: three buffer systems (pH 4, 7.4, 10), time points up to 18 h, UPLC-MS.

Converted amounts (≈) assume the structure as drawn. Read-outs that look alike come from different tables or passages of the source.

`Cc1ccccc1OCC(=O)Nc1cccnc1` [Compound 3, 2-(2-methylphenoxy)-N-(pyridine-3-yl)acetamide] returned a half-life in series [1] (liver microsomes) of 1.1 min.

For the molecule `Cc1ccccc1OCC(=O)Nc1cnccn1` [Compound 22], in series [1], the “MLM (t1/2 min)” value is “Not detected ^a”.

Take `Cc1ccccc1OCC(=O)Nc1ccc2nccnc2c1` [Compound 27]: in series [2], the “Response in TCF/LEF reporter assay” value is reported as “supramaximal response”.

Consider `Cc1ccccc1OCC(=O)Nc1ccc2cnn(C)c2c1` [Compound 34], for which the half-life in series [3] was 11.6 min. The “MLM (t1/2 min)” value in series [1] was “Not detected ^a”. The thermodynamic solubility in series [4] came out at 2 µg/mL (≈ 6.77 µM). This molecule yielded a Papp A→B in series [5] (MDCK-mdr1, AB) of 5.1 ×10⁻⁶ cm/s. Moreover, in series [5] (MDCK-mdr1, BA), the Papp B→A is 6.6 ×10⁻⁶ cm/s. In the series on MDCK-mdr1 cell line, the P-gp mediated efflux entry is recorded as “no evidence of P-gp mediated efflux”. The Hydrolytic stability result in series [6] is on record as “only parent was detected”.

On to `Cc1ccccc1OCC(=O)Nc1ccc2cn(C)nc2c1` [Compound 35], for which the “Response in TCF/LEF reporter assay” value in series [2] (dual activity: NOTUM inhibition and stabilizers of luciferase enzyme) is “supramaximal response”.

For `CCn1cc2ccc(NC(=O)COc3ccccc3C)cc2n1` [Compound 37], in series [2] (Homo sapiens, HEK293), the EC50 was 386 ± 199 nM.

Consider `Cc1ccccc1OCC(=O)Nc1ccc2cn(C(C)C)nc2c1` [Compound 38], for which the EC50 in series [2] (Homo sapiens, HEK293) is about 934 nM. Besides, the inhibition at 3 µM in series [2] (Homo sapiens, HEK293, at 3 μM) is 60%. The half-life in series [3] is 5.1 min; in series [1] (liver microsomes), 5.7 min.

Take `Cc1ccccc1OCC(=O)Nc1ccc2nn[nH]c2c1` [Compound 39]: in series [1] (liver microsomes), the half-life was found to be 1.8 min.

As for `Cc1ccccc1OCC(=O)Nc1ccc2cnccc2c1` [Compound 45], the half-life in series [3] is 12.1 min; in series [1] (liver microsomes), 11 min.

`O=C(COc1ccccc1Cl)Nc1ccc2cnccc2c1` [Compound 50]: the half-life in series [1] (liver microsomes) is 3.3 min.

In series [1] (mouse liver microsomes), `Cc1ccccc1N(C)CC(=O)Nc1ccc2cnn(C)c2c1` [Compound 53] showed a half-life of 5.2 min.

Turning to `Cc1ccccc1OCC(=O)N1CCc2ccccc2C1` [Compound 54], in series [1], the “MLM (t1/2 min)” value is listed as “Not detected ^a”.
